According to publication PMC3486884 (PLoS Pathogens, 2012):
Several values for one entry are separate records, joined by “and”; a condition that tells them apart may be missing. Identical values can stand only once. Like-named read-outs stand apart in the source and are kept apart here.

Experiments:
CVB3 [1] = assay: microbe, parasite or virus in culture; conditions: Enterovirus B, CVB3, HeLa, read-out: IC50 (CVB3)
[2] = pKa and log P quoted from the literature; assay type: physicochemical; conditions: pH 7.4
CVB4 [3] = assay: microbe, parasite or virus in culture; conditions: Enterovirus B, CVB4, HeLa, read-out: IC50 (CVB4)
rats = conditions: cited from earlier work
[4] = Liposome dextran-FITC de-quenching; conditions: read-out: FITC-fluorescence dequenching, half maximal efficacy; liposomes loaded at pH 5.15 with dextran-FITC
Description: Liposomes from soy phosphatidyl-choline were prepared in 100 mM acetate pH 5.15 containing 1 mM 4.4 kDa FITC-dextran using standard extrusion protocols yielding vesicles of an average size of 200 nm measured using a particle size analyzer (Nicomp 370, Nicomp, Port Richey, FL, USA). Non-encapsulated FITC-dextran was removed by size exclusion chromatography in a G25 column (Pharmacia) followed by extensive dialysis against 100 mM acetate pH 5.15 in a Floatalyzer with 50 kDa cut-off (Spectrumlabs). To measure fluorescence de-quenching FITC-dextran containing liposomes were diluted in PBS at 20–60 µg/ml, incubated with the respective compounds at room temperature and analysed for fluorescence using a plate reader (TECAN Safire II) with fluorescence TOP measurement settings at excitation of 483/10 nm and emission of 525/15 nm wavelength within 15 min. Control measurements of samples containing PBS, Triton X-100 or the compounds alone were carried out to measure background, maximal readout of the assay and auto-fluorescence of compounds. The data were normalized to the PBS control and background fluorescence was subtracted.

HRV16 [5] = assay: microbe, parasite or virus in culture; conditions: Human rhinovirus sp., HRV16, HeLa, read-out: IC50 (HRV16)
HRV16 [6] = tested on: HRV16
[7] = tested on: influenza virus (strain A/Puerto Rico/8/34/H1N1 depicted PR8); assay: microbe, parasite or virus in culture; conditions: unidentified influenza virus, A549, read-out: IC50 (PR8)
CVA21 [8] = tested on: CVA21
HRV1A [9] = assay: Full cycle infectivity assay (virus titer, TCID50); assay type: cell-based, human rhinovirus; conditions: full cycle assays; BafA1 (0.5 nM), alone or drug combination
CVA21 [10] = assay: microbe, parasite or virus in culture; conditions: Coxsackievirus, CVA21, HeLa, read-out: IC50 (CVA21)
HRV14 [11] = tested on: HRV14
HSV1 [12] = tested on: HSV1
HRV2 [13] = assay: microbe, parasite or virus in culture; conditions: Human rhinovirus sp., HRV2, HeLa, read-out: IC50 (HRV2)
HSV1 [14] = assay: microbe, parasite or virus in culture; conditions: Human alphaherpesvirus 1, read-out: IC50 (HSV1)
HRV1A [15] = assay: HRV1A infection of WI-38 human embryonic diploid airway cells; assay type: cell-based; conditions: Human rhinovirus sp.
Description: A single cell high-content, image based infection assay was applied to measure infection in high throughput format. Viruses were added to cells in infection medium containing BSA (DMEM containing 25 mM HEPES if used outside of a CO2 cell culture incubator, supplemented with L-glutamine, 30 mM MgCl2 and 0.2% BSA (Sigma) for CV and HRV), or in infection medium containing trypsin-TPCK (DMEM supplemented with L-glutamine and TPCK-trypsin 1 µg/ml (Sigma) for FLU/PR8) and normal growth media for HSV. For all experiments, the multiplicity of infection (moi) was chosen such that approximately 20–40% of the cells were infected at 7 h post infection (pi) (HRV &CV), 8 h pi (FLU) or 18 h pi (HSV). Cells were fixed by adding 1/3 volume of a 16% para-formaldehyde solution, washed with PBS, PBS/25 mM NH4Cl and PBS, permeabilized with 0.2% Triton X-100 (Sigma), washed twice with PBS and blocked with PBS/1% BSA (Fraction V, Sigma). […] Routinely, 9–20 images per well were acquired yielding an average of 5000–12000 cells analysed per well and data point. […] Images were analyzed using a custom written Matlab routine. […]
Compounds were dissolved in dimethyl sulfoxid (DMSO, cell culture grade, Sigma) and added to cells in dilutions indicated with respective concentrations of solvent alone as controls. […] Infection was quantified by immune-staining for dsRNA. […]

HRV1A [16] = assay: microbe, parasite or virus in culture; conditions: Human rhinovirus sp.
[17] = tested on: clathrin-coated vesicles (CCV); assay: Acridine orange measurements in clathrin-coated vesicles; conditions: AO red fluorescence assay
Description: CCV suspended in assay buffer (10 mM HEPES, pH7, 100 mM KCl, 1 mM EDTA) were incubated with 1 mM ATP, 2 µM AO (Molecular Probes). The ATPase reaction was initiated by adding MgCl2 to 1 mM and fluorescence was determined at 492/540 nm in a plate reader (Tecan, Männedorf, Switzerland) at room temperature after 10 min. BafA1 and samples without MgCl2 were used as controls.

HRV2 [18] = tested on: HRV2
HRV14 [19] = assay: microbe, parasite or virus in culture; conditions: Human rhinovirus sp., HRV14, HeLa, read-out: IC50 (HRV14)
[20] = tested on: influenza virus (strain A/Puerto Rico/8/34/H1N1 depicted PR8)
HRV1A, 2, 14, 16 = assay: Infection assays with the HRV panel in HeLa cells; assay type: cell-based, human rhinovirus
CVB3 [21] = tested on: CVB3
CVB4 [22] = tested on: CVB4
[23] = cited from earlier work

Which IC50 (CVB3 [1]) does the source give for `O=C(Nc1ccc([N+](=O)[O-])cc1Cl)c1cc(Cl)ccc1O` [niclosamide, 5-chloro-N-(2-chloro-4-nitrophenyl)-2-hydroxybenzamide, reference compound] here?
The IC50 was > 50000 nM.

And the “molecules in the deprotonated form” value [2]?
The value was “about 99%”.

And the IC50 (CVB4 [3])?
The IC50 was 3880 nM.

What about the “acute oral toxicity LD50” value (rats) of the same molecule?
Its value is > 5 g/kg body weight.

And the EC50 [4]?
The EC50 was 14000 nM.

And the IC50 (HRV16 [5])?
Its IC50 is 1380 nM.

And the “TI (IC50 / CC50), HRV16” value (HRV16 [6])?
Its value is 14.7.

What about the IC50 [7] of the same molecule?
The IC50 was 830 nM.

What about the “TI (IC50 / CC50), CVA21” value (CVA21 [8]) of the same molecule?
The value was 3.06.

What about the “decrease of virus titers” value (HRV1A [9]) of the same molecule?
Its value is “about five-fold”.

And the IC50 (CVA21 [10])?
Its IC50 is 6630 nM.

And the “TI (IC50 / CC50), HRV14” value (HRV14 [11])?
Its value is 24.1.

What about the “TI (IC50 / CC50), HSV1” value (HSV1 [12]) of the same molecule?
Its value is 1.37.

What about the IC50 (HRV2 [13]) of the same molecule?
Its IC50 is 1010 nM.

And the IC50 (HSV1 [14])?
Its IC50 is > 10000 nM and 14800 nM.

And the IC50 (HRV1A [15])?
Its IC50 is 1300 nM.

What about the IC50 (HRV1A [16]; HeLa, read-out: IC50 (HRV1A)) of the same molecule?
The IC50 was 1040 nM.

And the activity at 0.03 µM (HRV1A [16]; M-HeLa, 7 h, read-out: HRV1A infection (dsRNA), 0.03 µM)?
Its activity at 0.03 µM is 98%.

What about the activity at 0.1 µM (HRV1A [16]; M-HeLa, 7 h, read-out: HRV1A infection (dsRNA), 0.10 µM) of the same molecule?
Its activity at 0.1 µM is 96%.

What about the activity at 0.31 µM (HRV1A [16]; M-HeLa, 7 h, read-out: HRV1A infection (dsRNA), 0.31 µM) of the same molecule?
Its activity at 0.31 µM is 90%.

And the activity at 0.93 µM (HRV1A [16]; M-HeLa, 7 h, read-out: HRV1A infection (dsRNA), 0.93 µM)?
The activity at 0.93 µM was 39%.

What about the activity at 2.78 µM (HRV1A [16]; M-HeLa, 7 h, read-out: HRV1A infection (dsRNA), 2.78 µM) of the same molecule?
The activity at 2.78 µM was 4%.

And the activity at 8.33 µM (HRV1A [16]; M-HeLa, 7 h, read-out: HRV1A infection (dsRNA), 8.33 µM)?
Its activity at 8.33 µM is 5%.

And the activity at 25 µM (HRV1A [16]; M-HeLa, 7 h, read-out: HRV1A infection (dsRNA), 25.00 µM)?
The activity at 25 µM was 4%.

And the “pH of isolated CCV” value [17]?
The value was “neutralized the pH of CCV in a dose-dependent manner”.

What about the “TI (IC50 / CC50), HRV2” value (HRV2 [18]) of the same molecule?
Its value is 20.1.

What about the IC50 (HRV14 [19]) of the same molecule?
Its IC50 is 840 nM.

What about the “TI (IC50 / CC50), PR8” value [20] of the same molecule?
The value was 24.4.

What about the IC50 (HRV1A, 2, 14, 16; Human rhinovirus sp., HRV1A, HeLa, read-out: IC50 (range over HRV1A, 2, 14, 16)) of the same molecule?
The IC50 was 840 to 1400 nM.

And the “effect of drug washout on the antiviral effect” value (HRV1A, 2, 14, 16; cells pre-treated 30 min or 18 h, washed with drug-free medium)?
Its value is “completely abolished the antiviral effect”.

What about the “time of addition giving half maximal effects” value (HRV1A, 2, 14, 16; compound added before or post infection of HeLa cells with HRV) of the same molecule?
Its value is ≤ 30 min pi.

And the “effect of virus pre-treatment on the inhibition profile” value (HRV1A, 2, 14, 16; viruses pre-treated at up to 400 µM at 37°C for 30 min)?
Its value is “did not affect the inhibition profile”.

And the “TI (IC50 / CC50), CVB3” value (CVB3 [21])?
Its value is < 0.4.

What about the “TI (IC50 / CC50), CVB4” value (CVB4 [22]) of the same molecule?
Its value is 5.22.

What about the “log P” value ([23]; pH 5.7) of the same molecule?
Its value is 5.63.

What about the “log P” value ([23]; pH 7) of the same molecule?
The value was 4.48.
